This note sets out measurements from ChEMBL document CHEMBL4052691, “Discovery of BMS-961955, an allosteric inhibitor of the hepatitis C virus NS5B polymerase” (Bioorg Med Chem Lett, 2017).

Data set [1] can be described thus: Apparent permeability of the compound at pH 5.5 by PAMPA. The class given is physicochemical. (The PAMPA barrier holds no transporters, so it reflects passive diffusion.)
Data set [2] in a line: Apparent permeability of the compound at pH 7.4 by PAMPA. The class given is physicochemical.
Data set [3] in a line: Oral bioavailability rat at 10 mg/kg. The note with it: in vivo. The class given is ADME, organism-based.
The nature of data set [4]: (§1) AUC (0 to 6 hrs) in rat at 5 mg/kg, iv. The class given is ADME, organism-based. The note with it: in vivo. Set-up: dose 5 mg/kg, time < 6 hr, route intravenous.
Data set [5] can be described thus: AUC (0 to 24 hrs) in rat at 5 mg/kg, iv. The class given is ADME, organism-based. More on the design: time < 24 hr, dose 5 mg/kg, route intravenous. The settings on record: in vivo.
Data set [6] is described as follows: Volume of distribution at steady state in rat at 5 mg/kg, iv. In kind it is ADME, organism-based. The note with it: in vivo, read-out: Vdss.
A short description of data set [7]: AUC (0 to 24 hrs) in rat at 10 mg/kg, iv. The class given is ADME, organism-based. Set-up: dose 10 mg/kg, time < 24 hr, route intravenous. The note with it: in vivo.
A short description of data set [8]: AUC (0 to 24 hrs) in dog at 1 mg/kg, iv. More on the design: time < 24 hr, dose 1 mg/kg, route intravenous. In kind it is ADME, organism-based, Canis lupus familiaris. The note with it: in vivo.
A short description of data set [9]: AUC (0 to 24 hrs) in dog at 3 mg/kg, po. The class given is ADME, organism-based, Canis lupus familiaris. Set-up: time < 24 hr, dose 3 mg/kg, route oral. The note with it: in vivo.
A short description of data set [10]: Volume of distribution at steady state in dog at 1 mg/kg, iv. The settings on record: in vivo, read-out: Vdss. In kind it is ADME, organism-based, Canis lupus familiaris.
A short description of data set [11]: Oral bioavailability in dog at 3 mg/kg. The settings on record: in vivo. In kind it is ADME, organism-based, Canis lupus familiaris.
Data set [12] can be described thus: AUC (0 to 24 hrs) in cynomolgus monkey at 1 mg/kg, iv. The class given is ADME, organism-based, Macaca fascicularis. Set-up: dose 1 mg/kg, time < 24 hr, route intravenous. The settings on record: in vivo.
Data set [13] can be described thus: AUC (0 to 24 hrs) in cynomolgus monkey at 3 mg/kg, […]. The note with it: in vivo. Set-up: dose 3 mg/kg, time < 24 hr. The class given is ADME, organism-based, Macaca fascicularis.
Data set [14] in a line: Volume of distribution at steady state in cynomolgus monkey at 1 mg/kg, iv. The class given is ADME, organism-based, Macaca fascicularis. The settings on record: in vivo, read-out: Vdss.
Data set [15] in a line: Oral bioavailability in cynomolgus monkey at 3 mg/kg. In kind it is ADME, organism-based, Macaca fascicularis. The settings on record: in vivo.
Another data set deals with Rattus norvegicus. The data set is described as §1. The class given is ADME, organism-based. Set-up: dose 5 mg/kg, time < 6 hr, route intravenous. The settings on record: in vivo, 6 h.

What is called Papp is a coefficient for how fast a substance crosses the barrier. What is called bioavailability is the share of a dose that reaches the circulation, judged against a reference dose that is usually intravenous. The term AUC(0-t) denotes the area under the concentration-time curve up to a stated or last time point. Take `CN1CC2CCC(C1)N2C(=O)[C@]12C[C@H]1c1cc(F)ccc1-c1c(C3CCCCC3)c3ccc(C(=O)NS(=O)(=O)C(C)(C)C)cc3n1C2`: the Papp in data set [1] worked out at 13.5 ×10⁻⁶ cm/s; in [2], 23.8 ×10⁻⁶ cm/s. Moreover, the bioavailability in data set [3] stood at 8%. The same compound returned an AUC(0-t) at 6 h in [4] of 1.3 µM·h.
`CN1CC2CCC(C1)N2C(=O)[C@]12C[C@H]1c1cc(F)ccc1-c1c(C3CCCCC3)c3ccc(C(=O)NS(=O)(=O)C4CC4)cc3n1C2` returned an AUC(0-t) at 24 h in data set [5] of 1.51 µM·h. The bioavailability in data set [3] was found to be 23%.
Take `CN1CC2CCC(C1)N2C(=O)[C@]12C[C@H]1c1cc(F)ccc1-c1c(C3CCCCC3)c3ccc(C(=O)NS(=O)(=O)C4(C)CC4)cc3n1C2`: the Papp was found to be 52.3 ×10⁻⁶ cm/s in data set [1] and 59 ×10⁻⁶ cm/s in [2]. In addition, the exposure AUC(0-t) at 24 h in [5] was 12.3 to 12.4 µM·h; in [7], 12.4 µM·h; in data set [8], 25.7 µM·h; in data set [9], 62.1 µM·h; in data set [12], 2.3 µM·h; in data set [13], 3.1 µM·h. Further, the results for the bioavailability in data set [3], in data set [11] and in data set [15] were 52%, 84% and 48%, respectively. Further, the Vd in data set [6] came out at 3.9 L/kg; in [10] it was 0.6 L/kg; in data set [14], 3.1 L/kg.
In [5], `CCS(=O)(=O)NC(=O)c1ccc2c(C3CCCCC3)c3n(c2c1)C[C@@]1(C(=O)N2C4CCC2CN(C)C4)C[C@H]1c1cc(F)ccc1-3` displayed an area under the curve AUC(0-t) at 24 h of 0.857 µM·h. In [3], this compound had a bioavailability of 13.6%.
The AUC is the area under the concentration-time curve, a measure of exposure. `CN1CC2CCC(C1)N2C(=O)[C@]12C[C@H]1c1cc(F)ccc1-c1c(C3CCCCC3)c3ccc(C(=O)NS(=O)(=O)N4CCC4)cc3n1C2` gave a bioavailability in data set [3] of 19%. This compound displayed an area under the curve (AUC) in the data set on Rattus norvegicus of 0.5 µM·h.
